Experimental data: US8323925B2, “Aβ-binding protein and its peptide derivatives and uses thereof” (priority 2005, dated 2012)
No end group written: not given here. His‑tag = His-Tag conjugated at the N-terminus

B1: PK-4: Recombinant 170 amino acid polypeptide (21 kDa), sequence 1171-1314 and 1369-1380 of human pericentriolar material protein-1, PCM-1 (protein)
chain: SGKTEYMAFPKPFESSSSIGAEKPRNKKLPEEEVESSRTPWLYEQEGEVEKPFIKTGFSVSVEKSTSSNRKNQLDTNGRRRQFDEESLESFSSMPDPVDPTTVTKTFKTRKASAQASLASKDKTPKSKSKKRNSTQLKSRVKNITHARRILQQSNRNACNEAPETGSDFSMFEA

Assays:
[1] = Stability in serum containing medium; type: in vitro ADME; settings: for stability in serum containing medium: up to 48 hrs
Procedure: (§1) All peptides P4, P5 and P4-5 are stable in serum containing medium for up to 48 hrs and also in rat blood plasma (FIG. 7). P4 peptide was incubated in culture medium containing 10% fetal calf serum for various time periods at 37° C. and the stability of p4 was tested by Western blot analysis using p4-specific antibody. No loss of P4 was detected over a 24 hour period.

CD-1 mice = test: Toxicity in vivo; design: species or system mouse; settings: up to 20 mg/kg body weight
[2] = Stability in rat blood plasma; type: in vitro ADME
Procedure: as §1

[3] = type: in vitro ADME
From the text: (§2) These fusion proteins can be used not only to specifically deliver ABPs to the brain but also inside brain cells. This is particularly important since intracellular Aβ is believed to play a major role in synaptic dysfunction and neurodegeneration well before the accumulation of insoluble Aβ in senile plaques^6,7. Such pseudo vaccines would be administered, for example, subcutaneously, and further ingredients beyond a pharmacologically acceptable carrier would not be necessary. […] Recombinant Aβ binding peptide P4-5 (rABP, His-tag-[…]) was conjugated to BBB-permeable single-domain antibody FC5 (FIG. 8A). The FC5 conjugated peptide (FC5/ABP) bound AB1-42 equally well as the synthetic (sABP) or non-conjugated peptide (rABP) (FIG. 8B).

AB1-42 [4] = molecular target: T1, AB1-42 (Homo sapiens, UniProt P05067); test: Aβ binding of FC5-conjugated peptide
From the text: as §2

neuroblastoma cells = test: Toxicity in vitro against cultured neuroblastoma cells; type: cell-based; settings: data not shown
Procedure: Human neuroblastoma cells, SH-SY5Y were treated with 15 μM Aβ in the presense or absence of Aβ binding peptide p4-5 in serum-free medium for 48 hrs and cell death was assessed by Hoechst stain.

primary cortical neurons = test: Toxicity in vitro against primary cortical neurons; type: cell-based; settings: data not shown
Aβ40-1 = test: Aβ-binding dot-blot assay, reverse peptide; settings: dot-blot (FIG. 1B)
Procedure: (§3) Aβ-binding of recombinant proteins PK-4 and PK-3 with N-terminus His-tag was determined by dot-blot assay using His-Tag antibody (A) or PK-4-specific antibody (B), and by Biacore analysis (C). β-binding PK-4 is a […] amino acid-long polypeptide that corresponds to sequence 1171-1314, and 1369-1380, of the human pericentriolar material protein-1, PCM-1.

Aβ42-1 = test: Aβ-binding dot-blot assay, reverse peptide; settings: dot-blot (FIG. 1B)
Procedure: as §3

rat brain PKC = test: PKC inhibitory activity in vitro; type: biochemical; settings: rat brain PKC (FIG. 5)
Procedure: Various synthetic peptides derived from PK-4 (see FIG. 2) were tested for PKC inhibitory activity in vitro using rat brain PKC.

Aβ1-42 = Aβ1-42 (Homo sapiens, UniProt P05067); test: Aβ-binding of recombinant proteins by dot-blot assay
Procedure: as §3

Aβ1-40 = Aβ1-40 (Homo sapiens, UniProt P05067); test: as above; settings: PK-4-specific antibody (FIG. 1B)
Procedure: as §3

AB1-42 [5] = molecular target: T1, AB1-42; test: Biacore analysis; type: binding; settings: Biacore (FIG. 1C)
Procedure: as §3

T1 sequence (P05067 672-713 limits assumed): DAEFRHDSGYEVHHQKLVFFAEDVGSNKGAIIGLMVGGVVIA
Chain of Aβ1-42 (P05067 672-713 limits assumed): as above
Chain of Aβ1-40 (P05067 672-711 limits assumed): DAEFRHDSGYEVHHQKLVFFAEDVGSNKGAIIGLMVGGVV

| Molecule | stability in serum containing medium [1] | apparent toxicity in vivo (CD-1 mice) | stability in rat blood plasma [2] | crossing of BBB in vitro [3] | toxicity in vitro against cultured neuroblastoma cells (neuroblastoma cells) | toxicity in vitro against primary cortical neurons (primary cortical neurons) | also measured |
| --- | --- | --- | --- | --- | --- | --- | --- |
| KDKTPKSKSKKRNSTQLKSRVKNITHARRILQQSNRNACN [Peptide P5] | stable | none of the peptides, p4, p5, or p4-5 showed any apparent toxicity | stable | – | – | – | – |
| FC5/ABP: Recombinant Aβ binding peptide P4-5 conjugated to BBB-permeable single-domain antibody FC5 ({His‑tag}-MPDPVDPTTVTKTFKTRKASAQASLASKDKTPKSKSKKRNSTQLKSRVKNI; also: conjugated to single-domain antibody FC5) | – | – | – | crossed the barrier | – | – | binding of AB1-42 relative to synthetic or non-conjugated peptide (AB1-42 [4]): equally well |
| His-tag-MPDPVDPTTVTKTFKTRKASAQASLASKDKTPKSKSKKRNSTQLKSRVKNI ({His‑tag}-MPDPVDPTTVTKTFKTRKASAQASLASKDKTPKSKSKKRNSTQLKSRVKNI) [rABP] | – | – | – | did not cross the BBB | – | – | – |
| FSSMPDPVDPTTVTKTFKTRKASAQASLASKDKTPKSKSK [Peptide P4] | stable | none of the peptides, p4, p5, or p4-5 showed any apparent toxicity | stable | – | no toxicity | no toxicity | loss of peptide in culture medium containing 10% fetal calf serum ([1]; 37° C., over a 24 hour period, Western blot): No loss |
| KTFKTRKASAQASLASKDKTPKSKSKKRNSTQLKSRVKNI [Peptide P4-5] | stable | none of the peptides, p4, p5, or p4-5 showed any apparent toxicity | stable | – | no toxicity | no toxicity | – |
| B1 | – | – | – | – | – | – | binding of reverse peptide Aβ40-1 (Aβ40-1): does not bind; binding of reverse peptide Aβ42-1 (Aβ42-1): does not bind; PKC inhibitory activity (rat brain PKC): inhibits; selective binding of Aβ1-42 (Aβ1-42; His-Tag antibody (FIG. 1A)): selectively binds Aβ1-42; binding affinity for Aβ1-42 (Aβ1-42; PK-4-specific antibody (FIG. 1B)): high affinity (nM range); binding affinity for Aβ1-40 (Aβ1-40): high affinity (nM range); binding of AB1-42 (AB1-42 [5]): High affinity-binding |
